Earlier results as cited in patent US20260199284A1, “SPECIFIC VASH COMPOUNDS (SVC) INHIBITORS FOR HEART DISEASES” (MT ACT, priority 2023, published 2026).

Tested on: VASH
Settings: cited from earlier work

CCOC(=O)[C@H]1O[C@@H]1C(=O)N[C@@H](Cc1ccc(O)cc1)C(=O)O [Epo-Y, epoxide-Y]
more potent VASH inhibitor than PTL: > 10 fold
